The subject of assay [1] is clinically-derived HIV-1 protease variant KY26. In words: Cell-based assay (Swanstrom laboratory). As to conditions: Human immunodeficiency virus 1.
In assay [2] the test system is clinically-derived HIV-1 protease variant VEG23. In words: Cell-based assay (Swanstrom laboratory). As to conditions: Human immunodeficiency virus 1.
Assay [3] deals with NL4-3 wild-type HIV-1 protease. In words: Cell-based assay (Swanstrom laboratory). As to conditions: Human immunodeficiency virus 1, NL43. An excerpt: (§1) A diverse panel of 15 HIV-1 protease variants was chosen with a broad range of sequence substitutions containing single site mutants and more heavily mutated multi-drug resistant proteases (MDR-PRs). Both the SF-2 and NL4-3 wild-type (WT) proteases were used as controls for the variants in the panel. These two WT proteins shared 95% identity, varying at positions 7, 14, 41, 63 and 64 (FIG. 2). […] Table 1 is a listing of EC50 values for clinically-derived HIV-1 protease variants determined by cell-based assays at the Swanstrom laboratory at UNC-Chapel Hill, and fold changes relative to wild type NL4-3. The EC50 value for variant ATA21 could not be determined.

Assay [4] relates to clinically-derived HIV-1 protease variant VSL23. In words: Cell-based assay (Swanstrom laboratory). As to conditions: Human immunodeficiency virus 1.
Assay [5] has as its system SF-2 wild-type HIV-1 protease. In words: Cell-based replicon assay. As to conditions: Human immunodeficiency virus 1, cell-based replicon assays.
Text: as §1
(In general: In antiviral work, replicon cells carry a viral genome segment that copies itself.)

Assay [6] has as its system clinically-derived HIV-1 protease variant SLK19. In words: Cell-based assay (Swanstrom laboratory). As to conditions: Human immunodeficiency virus 1.

The results in this text go back to US11521704B2, “Method for probing at least one binding site of a protein” (priority 2017, dated 2022).

Usually EC50 stands for the concentration at which the effect is half-maximal.

Where two headings read alike, the source gives them in different places.

In the case of `CC(C)CN(C[C@@H](O)[C@H](Cc1ccccc1)NC(=O)O[C@H]1CO[C@H]2OCC[C@H]21)S(=O)(=O)c1ccc(N)cc1` [DRV, Darunavir], the EC50 was determined as 1.16 µM in assay [1]; 7.8 µM in assay [2]; 0.004 µM in assay [3] (NL4-3, cell-based replicon assays, read-out: EC50); 0.00398 µM in assay [3] (NL4-3 wild type, read-out: EC50 In); 0.32 µM in assay [4]; 0.004 µM in assay [5]. Further, the response in assay [6] was half-maximal at 0.0325 µM (EC50).
